Reference: patent US10493102B2, “Methods of inhibiting the virulence of a pathogen with an oxidized tannin to treat a gastrointestinal spasm” (priority 2012, dated 2019)

Key:
[1] = test system: E. coli; assay: Stability of hydrogen peroxide (bound vs free) in aqueous solution challenged with E. coli; format: physicochemical
From the text: This method tests the stability of the hydrogen peroxide in the combination. The testing methods used follow the standard procedures set-forth by the Clinical and Laboratory Standards Institute (CLSI) and US Pharmacopeia. • i. E. coli was chosen as the bacteria to challenge the stability of the bound compositions and the free hydrogen peroxide. • ii. The hydrogen peroxide concentration was matched to the selected bacteria in order to form a useful curve representing hydrogen peroxide degradation over time for the samples. As such, the hydrogen peroxide was varied from 62.5 ppm to 500 ppm on a fixed E. coli concentration of 10^6 CFU/ml, and a concentration of 125 ppm was chosen as the initial hydrogen peroxide level used to challenge the E. coli over time. • iii. A ratio of 1:1 of the hydrogen peroxide to each of the model compounds and plant extracts was used to form each bound composition, such that 125 ppm of each plant extract was combined with the 125 ppm of the hydrogen peroxide, • iv. The free hydrogen peroxide was added at a concentration of 125 ppm as a control to show the relative stability of the hydrogen peroxide alone in the aqueous solution as compared to the bound compositions.
FIG. 2A compares stabilities of free hydrogen peroxide to hydrogen peroxide bound to each of: gallic acid (a model polyphenol building block), tannic acid (a model polyphenol), pomegranate husk extract, green tea extract, and Blessed thistle extract. […] In both FIGS. 2A and 2B, there are curves that cannot be identified well individually, as they are identical and overlapping. […]

[2] = Amount of hydrogen peroxide that remains bound to the polyphenol in dry form; format: physicochemical; details: dry form redissolved in water; WATERWORKS peroxide test strip
From the text: Art-recognized procedures, such as those set-forth at least in U.S. Pat. Nos. 3,860,694; 3,864,454; 4,171,280; and 4,966,762, were used as a guide for this study.
As discussed, one of skill will appreciate that hydrogen peroxide in a free form, for example, would otherwise quickly degrade. The polyphenols were provided from model compounds or plant extracts. A dry form of the compositions was made between (i) gallic acid (a model polyphenol building block from Sigma-Aldrich) and hydrogen peroxide; (ii) tannic acid (a model polyphenol component from Sigma-Aldrich) and hydrogen peroxide; (iii) pomegranate husk extract and hydrogen peroxide; and, (iv) green tea extract and hydrogen peroxide; using the procedures taught herein, including: • i. adding a solution of 35% hydrogen peroxide slowly into each of the gallic acid powder, tannic powder, pomegranate husk extract powder; or green tea extract powder. […]

[3] = test system: IBS patients, abdominal pain; details: other studies; cited from earlier work

OO [H2O2, hydrogen peroxide]
hydrogen peroxide level, Hours 0 ([1]; 0 h (initial level), 1:1 extract:H2O2, 125 ppm each, E. coli 10^6 CFU/ml): 125 ppm
hydrogen peroxide level, Hours 4 ([1]; 4 h, 1:1 extract:H2O2, E. coli 10^6 CFU/ml): 15 ppm
hydrogen peroxide level, Hours 8 ([1]; 8 h, 1:1 extract:H2O2, E. coli 10^6 CFU/ml): 0 ppm
hydrogen peroxide level, Hours 12 ([1]; 12 h, 1:1 extract:H2O2, E. coli 10^6 CFU/ml): 0 ppm
hydrogen peroxide level, Hours 16 ([1]; 16 h, 1:1 extract:H2O2, E. coli 10^6 CFU/ml): 0 ppm
hydrogen peroxide level, Hours 20 ([1]; 20 h, 1:1 extract:H2O2, E. coli 10^6 CFU/ml): 0 ppm
hydrogen peroxide level, Hours 24 ([1]; 24 h, 1:1 extract:H2O2, E. coli 10^6 CFU/ml): 0 ppm
hydrogen peroxide level after degradation ([1]; within about the first 8 hours): ~0.0 ppm

O=C(O)c1cc(O)c(O)c(O)c1 [gallic acid]
hydrogen peroxide bound by total dry wt [2]: about 3.0%

CN(C)C(=O)C(CCN1CCC(O)(c2ccc(Cl)cc2)CC1)(c1ccccc1)c1ccccc1 [loperamide]
effect on abdominal pain symptoms compared with placebo [3]: no different from placebo

O=C(OC[C@H]1O[C@@H](OC(=O)c2cc(O)c(O)c(OC(=O)c3cc(O)c(O)c(O)c3)c2)[C@H](OC(=O)c2cc(O)c(O)c(OC(=O)c3cc(O)c(O)c(O)c3)c2)[C@@H](OC(=O)c2cc(O)c(O)c(OC(=O)c3cc(O)c(O)c(O)c3)c2)[C@@H]1OC(=O)c1cc(O)c(O)c(OC(=O)c2cc(O)c(O)c(O)c2)c1)c1cc(O)c(O)c(OC(=O)c2cc(O)c(O)c(O)c2)c1 [tannic acid]
hydrogen peroxide bound by total dry wt [2]: about 2.5%
